In patent publication US12479847B2 (DANA-FARBER CANCER INSTITUTE, INC., priority 2019, dated 2025) one finds remaining binding data, which are given here for 3 compounds.

Common to all, as to experiment: KINOMEscan (ScanMAX) kinase profiling
Common to all, as to type: binding

For assay [1], the target named is T1, panel of 468 kinases (Homo sapiens, UniProt P52564).
T1 construct: purchased KINOMEscan (ScanMAX) service
T1 sequence (P52564 1-334): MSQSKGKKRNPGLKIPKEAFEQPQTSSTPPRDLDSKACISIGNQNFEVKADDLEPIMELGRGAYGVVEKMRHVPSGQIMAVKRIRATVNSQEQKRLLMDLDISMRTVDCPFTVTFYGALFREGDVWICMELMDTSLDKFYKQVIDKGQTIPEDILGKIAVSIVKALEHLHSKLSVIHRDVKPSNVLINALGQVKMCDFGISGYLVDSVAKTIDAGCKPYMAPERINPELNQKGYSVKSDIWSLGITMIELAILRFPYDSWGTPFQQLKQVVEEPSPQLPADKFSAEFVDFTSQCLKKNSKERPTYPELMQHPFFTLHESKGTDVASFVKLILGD
To be noted: MEK6; 1 μM; read-out: % control.

In assay [2] the target is T2, panel of 468 kinases (Homo sapiens, UniProt Q8N752).
T2 construct: purchased KINOMEscan (ScanMAX) service
T2 sequence (Q8N752 1-337): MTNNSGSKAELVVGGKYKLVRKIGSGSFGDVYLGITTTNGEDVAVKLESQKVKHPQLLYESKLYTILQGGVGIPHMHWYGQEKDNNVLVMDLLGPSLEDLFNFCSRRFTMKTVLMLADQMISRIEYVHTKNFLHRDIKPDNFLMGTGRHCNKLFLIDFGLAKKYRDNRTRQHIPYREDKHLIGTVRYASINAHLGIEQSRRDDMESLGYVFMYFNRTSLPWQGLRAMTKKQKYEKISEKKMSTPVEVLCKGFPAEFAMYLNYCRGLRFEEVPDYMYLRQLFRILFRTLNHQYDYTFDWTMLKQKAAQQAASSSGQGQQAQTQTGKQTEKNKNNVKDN
To be noted: CSNK1A1L; 1 μM; read-out: % control.

The target of assay [3] is T3, panel of 468 kinases (Homo sapiens, UniProt Q96PY6).
T3 construct: purchased KINOMEscan (ScanMAX) service
T3 sequence (Q96PY6 1-1258): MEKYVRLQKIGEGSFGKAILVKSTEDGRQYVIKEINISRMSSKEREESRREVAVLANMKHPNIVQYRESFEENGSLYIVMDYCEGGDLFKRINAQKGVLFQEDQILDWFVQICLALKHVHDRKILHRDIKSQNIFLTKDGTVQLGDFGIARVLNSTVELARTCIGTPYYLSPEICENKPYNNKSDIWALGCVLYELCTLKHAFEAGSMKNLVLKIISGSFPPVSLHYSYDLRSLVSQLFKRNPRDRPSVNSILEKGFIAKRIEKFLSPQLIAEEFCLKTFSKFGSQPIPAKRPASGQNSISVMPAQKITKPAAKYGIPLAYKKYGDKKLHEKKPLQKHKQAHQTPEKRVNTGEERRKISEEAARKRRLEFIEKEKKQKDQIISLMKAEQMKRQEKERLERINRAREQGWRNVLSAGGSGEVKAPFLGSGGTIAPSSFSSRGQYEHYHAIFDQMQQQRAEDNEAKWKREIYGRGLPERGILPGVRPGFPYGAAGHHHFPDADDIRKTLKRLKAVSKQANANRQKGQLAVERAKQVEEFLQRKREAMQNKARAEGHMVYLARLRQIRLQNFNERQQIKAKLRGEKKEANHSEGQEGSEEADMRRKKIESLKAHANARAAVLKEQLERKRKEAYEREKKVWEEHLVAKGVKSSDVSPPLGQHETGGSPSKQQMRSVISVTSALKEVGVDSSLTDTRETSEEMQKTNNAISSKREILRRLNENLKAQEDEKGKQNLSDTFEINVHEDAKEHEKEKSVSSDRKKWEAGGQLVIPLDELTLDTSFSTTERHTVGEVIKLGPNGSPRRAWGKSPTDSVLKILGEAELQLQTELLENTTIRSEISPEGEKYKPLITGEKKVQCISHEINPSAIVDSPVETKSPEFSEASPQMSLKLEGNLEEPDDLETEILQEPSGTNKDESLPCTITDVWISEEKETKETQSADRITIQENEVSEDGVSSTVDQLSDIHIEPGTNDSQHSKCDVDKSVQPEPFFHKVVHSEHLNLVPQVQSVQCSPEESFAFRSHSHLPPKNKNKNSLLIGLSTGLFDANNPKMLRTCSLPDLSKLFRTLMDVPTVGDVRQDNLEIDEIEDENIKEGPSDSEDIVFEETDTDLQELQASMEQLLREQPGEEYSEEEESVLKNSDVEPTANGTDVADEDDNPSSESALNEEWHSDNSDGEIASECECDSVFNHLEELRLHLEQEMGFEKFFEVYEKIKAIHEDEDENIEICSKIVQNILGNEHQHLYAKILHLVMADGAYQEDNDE
To be noted: NEK1; 1 μM; read-out: % control.

Each structure is given as a SMILES string.

For `CNc1nc(Nc2ccc(S(=O)(=O)N3CCC(N4CCOCC4)CC3)cc2OC)nc2[nH]cc(Cl)c12` [Compound 12, 5-chloro-N2-(2-methoxy-4-((4-morpholinopiperidin-1-yl)sulfonyl)phenyl)-N4-methyl-7H-pyrrolo[2,3-d]pyrimidine-2,4-diamine], the figures for the remaining binding at 1 µM on panel of 468 kinases [1], at panel of 468 kinases [2] and at panel of 468 kinases [3] were 96%, 56% and 100%, respectively.
On to `CNc1nc(Nc2ccc(P3(=O)CCN(C4CCOCC4)CC3)cc2OC)nc2[nH]cc(Cl)c12` [Compound 77, 4-(4-((5-chloro-4-(methylamino)-7H-pyrrolo[2,3-d]pyrimidin-2-yl)amino)-3-methoxyphenyl)-1-(tetrahydro-2H-pyran-4-yl)-1,4-azaphosphinane 4-oxide], for which the remaining binding at 1 µM at panel of 468 kinases [1] came to 56%; at panel of 468 kinases [2], 36%; at panel of 468 kinases [3], 98%.
Turning to `CNc1nc(Nc2ccc(C(=O)N3CCC(N4CCOCC4)CC3)c3c2OCO3)nc2[nH]cc(Cl)c12` [Compound 75, (7-((5-chloro-4-(methylamino)-7H-pyrrolo[2,3-d]pyrimidin-2-yl)amino)benzo[d][1,3]dioxol-4-yl)(4-morpholinopiperidin-1-yl)methanone], the remaining binding at 1 µM was determined as 10% on panel of 468 kinases [1], 70% at panel of 468 kinases [2] and 88% at panel of 468 kinases [3].
